Test results published in the supplement of paper PMC10307832.

What was measured:
Experiment in all cases: relative viability (nuclei count vs DMSO), 5 days (fraction); higher = more cells survive
Palbociclib + Alpelisib = compound: CC(=O)c1c(C)c2cnc(Nc3ccc(N4CCNCC4)cn3)nc2n(C2CCCC2)c1=O [Palbociclib] + Cc1nc(NC(=O)N2CCC[C@H]2C(N)=O)sc1-c1ccnc(C(C)(C)C(F)(F)F)c1 [Alpelisib] (partner 2 µM)
Outline: (§1)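 The day after seeding in 1536-well plates, lung cancer cell lines were treated by pin tool with a single drug, or with a fixed anchor-drug dose together with five library-drug doses (not always all listed) in √10 steps. After 5 days, a combined fix-and-stain solution (final 0.05% Triton X-100, 1% formaldehyde, 1 ug/ml Hoechst) was added. Nuclei counted on 4× images gave relative viability as treated counts over vehicle counts, reported as the median of duplicate plates.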

Palbociclib + Navitoclax = compound: CC(=O)c1c(C)c2cnc(Nc3ccc(N4CCNCC4)cn3)nc2n(C2CCCC2)c1=O [Palbociclib] + CC1(C)CCC(c2ccc(Cl)cc2)=C(CN2CCN(c3ccc(C(=O)NS(=O)(=O)c4ccc(N[C@H](CCN5CCOCC5)CSc5ccccc5)c(S(=O)(=O)C(F)(F)F)c4)cc3)CC2)C1 [Navitoclax] (partner 0.5 µM)
Outline: as §1

Palbociclib + Vorinostat = compound: CC(=O)c1c(C)c2cnc(Nc3ccc(N4CCNCC4)cn3)nc2n(C2CCCC2)c1=O [Palbociclib] + O=C(CCCCCCC(=O)Nc1ccccc1)NO [Vorinostat] (partner 1 µM)
Outline: as §1

Palbociclib + Olaparib = compound: CC(=O)c1c(C)c2cnc(Nc3ccc(N4CCNCC4)cn3)nc2n(C2CCCC2)c1=O [Palbociclib] + O=C(c1cc(Cc2n[nH]c(=O)c3ccccc23)ccc1F)N1CCN(C(=O)C2CC2)CC1 [Olaparib] (partner 8 µM)
Outline: as §1

Cell Line	relative viability (Palbociclib + Alpelisib; first compound 0.01 µM)	relative viability (Palbociclib + Alpelisib; first compound 0.03162 µM)	relative viability (Palbociclib + Alpelisib; first compound 0.1 µM)	relative viability (Palbociclib + Alpelisib; first compound 0.3162 µM)	relative viability (Palbociclib + Alpelisib; first compound 1 µM)	relative viability (Palbociclib + Navitoclax; first compound 0.01 µM)	relative viability (Palbociclib + Navitoclax; first compound 0.03162 µM)	relative viability (Palbociclib + Navitoclax; first compound 0.1 µM)	relative viability (Palbociclib + Navitoclax; first compound 0.3162 µM)	relative viability (Palbociclib + Navitoclax; first compound 1 µM)	relative viability (Palbociclib + Vorinostat; first compound 0.01 µM)	relative viability (Palbociclib + Vorinostat; first compound 0.03162 µM)	relative viability (Palbociclib + Vorinostat; first compound 0.1 µM)	relative viability (Palbociclib + Vorinostat; first compound 0.3162 µM)	relative viability (Palbociclib + Vorinostat; first compound 1 µM)	relative viability (Palbociclib + Olaparib; first compound 0.01 µM)	relative viability (Palbociclib + Olaparib; first compound 0.03162 µM)	relative viability (Palbociclib + Olaparib; first compound 0.1 µM)	relative viability (Palbociclib + Olaparib; first compound 0.3162 µM)	relative viability (Palbociclib + Olaparib; first compound 1 µM)
NCI-H727	0.579	0.425	0.348	0.335	0.326	0.429	0.406	0.324	0.266	0.326	1.25	1.03	1.01	1.01	0.909	0.738	0.728	0.699	0.728	0.568
LCLC-97TM1	0.291	–	0.189	0.209	0.189	0.401	–	0.27	0.294	0.281	0.698	–	0.423	0.363	0.249	0.326	–	0.308	0.311	0.262
PC-14	1.02	0.936	0.782	0.762	0.671	1.14	0.932	0.908	0.877	0.605	0.804	0.629	0.576	0.673	0.416	0.31	0.296	0.311	0.214	0.176
NCI-H520	0.855	0.749	0.503	0.552	0.431	1.08	0.719	0.745	0.785	0.481	0.728	0.57	0.565	0.47	0.372	0.289	0.35	0.255	0.199	0.173
LC-2-ad	0.876	–	0.701	0.641	0.463	0.555	–	0.402	0.383	0.337	0.712	0.351	0.561	0.561	0.475	0.744	0.71	0.688	0.642	0.553
NCI-H1915	1.05	1.01	0.982	0.959	0.896	0.764	0.733	0.771	0.782	0.763	0.487	–	0.438	0.525	0.378	0.244	–	0.257	0.258	0.244
EPLC-272H	1.13	–	0.808	0.69	0.658	1.21	–	1.06	1.06	0.833	0.535	0.647	0.46	0.401	0.245	0.779	0.807	0.681	0.615	0.313
NCI-H322M	0.805	0.895	0.689	0.676	0.496	1.14	1.31	1.03	0.964	0.808	0.837	0.784	0.602	0.55	0.454	0.762	0.709	0.702	0.599	0.445
NCI-H1437	0.946	1.06	0.857	0.889	0.48	1.1	1.04	0.933	0.923	0.563	0.873	0.74	0.651	0.493	0.35	0.64	0.599	0.564	0.489	0.369
NCI-H1734	0.637	0.588	0.539	0.537	0.374	0.928	0.779	0.708	0.593	0.487	0.731	0.459	0.619	0.649	0.48	0.616	0.596	0.566	0.494	0.407
NCI-H2023	0.663	0.589	0.427	0.475	0.247	1	0.897	0.897	0.77	0.48	0.721	0.281	0.54	0.515	0.303	0.467	0.478	0.402	0.374	0.262
EMC-BAC-2	0.738	0.646	0.602	0.665	0.508	1.16	1.07	1.06	0.953	0.731	0.461	0.39	0.379	0.376	0.308	0.511	0.48	0.506	0.51	0.448
NCI-H2170	0.797	0.767	0.776	0.715	0.601	0.624	0.552	0.74	0.578	0.549	0.841	0.515	0.694	0.675	0.447	0.675	0.61	0.551	0.488	0.436
NCI-H2126	0.793	0.748	0.679	0.591	0.414	0.861	0.848	0.743	0.745	0.561	0.718	0.381	0.535	0.545	0.325	0.972	0.833	0.698	0.719	0.526
HCC-44	0.728	0.789	0.819	0.798	0.774	0.948	0.953	1.03	0.99	1.02	1.09	1.08	1.15	1.03	1.13	0.945	0.952	1	0.965	1.01
HCC-366	0.517	–	0.345	0.209	0.204	1.05	–	0.996	0.877	0.803	0.388	–	0.289	0.213	0.135	0.376	–	0.384	0.335	0.215
SW 1573	0.676	0.744	0.571	0.57	0.49	0.986	1	0.838	0.642	0.439	0.752	0.251	0.51	0.673	0.546	0.463	0.452	0.454	0.359	0.291
